Laboratory results taken from ChEMBL document CHEMBL1127937, “Dual metalloprotease inhibitors. I. constrained peptidomimetics of mercaptoacyl dipeptides” (Bioorg Med Chem Lett, 1994).

Tests used:
Neprilysin = Neprilysin (Homo sapiens, UniProt P08473); assay: Tested in vitro for inhibition of neutral endopeptidase (NEP); conditions: read-out: I50
[1] = target: Angiotensin-converting enzyme (Homo sapiens, UniProt P12821); assay: Tested in vitro for inhibition of Angiotensin converting enzyme (ACE); conditions: read-out: I50
Chain of Angiotensin-converting enzyme (P12821 whole entry): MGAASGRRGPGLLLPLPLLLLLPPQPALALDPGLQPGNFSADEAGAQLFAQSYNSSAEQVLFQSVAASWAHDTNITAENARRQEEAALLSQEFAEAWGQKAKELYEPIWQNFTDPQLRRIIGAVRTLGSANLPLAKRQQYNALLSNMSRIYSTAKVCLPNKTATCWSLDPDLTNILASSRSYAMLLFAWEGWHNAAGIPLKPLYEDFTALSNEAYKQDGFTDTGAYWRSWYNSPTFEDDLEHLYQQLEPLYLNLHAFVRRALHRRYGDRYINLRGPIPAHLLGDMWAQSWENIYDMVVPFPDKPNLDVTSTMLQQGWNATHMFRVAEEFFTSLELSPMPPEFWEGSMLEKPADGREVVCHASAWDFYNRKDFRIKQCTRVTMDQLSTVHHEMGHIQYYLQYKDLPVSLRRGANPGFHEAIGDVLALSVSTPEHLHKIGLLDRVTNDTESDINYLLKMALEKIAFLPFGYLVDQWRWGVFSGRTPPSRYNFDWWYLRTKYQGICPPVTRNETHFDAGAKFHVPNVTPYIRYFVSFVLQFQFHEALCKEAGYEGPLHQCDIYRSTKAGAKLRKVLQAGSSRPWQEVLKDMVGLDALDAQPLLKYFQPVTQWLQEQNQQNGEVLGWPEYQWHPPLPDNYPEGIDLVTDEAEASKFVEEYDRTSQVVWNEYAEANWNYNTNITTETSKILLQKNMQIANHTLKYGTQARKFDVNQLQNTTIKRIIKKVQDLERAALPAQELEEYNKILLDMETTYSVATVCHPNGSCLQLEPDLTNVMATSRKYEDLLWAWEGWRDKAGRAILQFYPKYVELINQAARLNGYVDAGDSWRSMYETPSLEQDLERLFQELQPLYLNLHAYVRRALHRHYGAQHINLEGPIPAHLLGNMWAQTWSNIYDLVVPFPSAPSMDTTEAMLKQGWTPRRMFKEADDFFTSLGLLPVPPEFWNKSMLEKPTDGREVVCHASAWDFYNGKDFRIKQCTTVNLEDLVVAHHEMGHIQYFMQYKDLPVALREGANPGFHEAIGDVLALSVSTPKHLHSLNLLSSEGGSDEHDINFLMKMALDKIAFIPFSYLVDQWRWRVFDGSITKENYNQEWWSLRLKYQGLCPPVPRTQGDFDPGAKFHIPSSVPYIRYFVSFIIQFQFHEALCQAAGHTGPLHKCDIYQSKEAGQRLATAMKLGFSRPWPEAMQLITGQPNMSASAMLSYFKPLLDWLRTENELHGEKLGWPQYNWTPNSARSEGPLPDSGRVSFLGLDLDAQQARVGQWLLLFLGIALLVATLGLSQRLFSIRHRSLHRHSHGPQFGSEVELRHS

Rattus norvegicus = assay: Tested in vivo for inhibition of angiotensin I -induced pressor response in normotensive rats after iv administration; type: functional

Chain of Neprilysin (P08473 whole entry): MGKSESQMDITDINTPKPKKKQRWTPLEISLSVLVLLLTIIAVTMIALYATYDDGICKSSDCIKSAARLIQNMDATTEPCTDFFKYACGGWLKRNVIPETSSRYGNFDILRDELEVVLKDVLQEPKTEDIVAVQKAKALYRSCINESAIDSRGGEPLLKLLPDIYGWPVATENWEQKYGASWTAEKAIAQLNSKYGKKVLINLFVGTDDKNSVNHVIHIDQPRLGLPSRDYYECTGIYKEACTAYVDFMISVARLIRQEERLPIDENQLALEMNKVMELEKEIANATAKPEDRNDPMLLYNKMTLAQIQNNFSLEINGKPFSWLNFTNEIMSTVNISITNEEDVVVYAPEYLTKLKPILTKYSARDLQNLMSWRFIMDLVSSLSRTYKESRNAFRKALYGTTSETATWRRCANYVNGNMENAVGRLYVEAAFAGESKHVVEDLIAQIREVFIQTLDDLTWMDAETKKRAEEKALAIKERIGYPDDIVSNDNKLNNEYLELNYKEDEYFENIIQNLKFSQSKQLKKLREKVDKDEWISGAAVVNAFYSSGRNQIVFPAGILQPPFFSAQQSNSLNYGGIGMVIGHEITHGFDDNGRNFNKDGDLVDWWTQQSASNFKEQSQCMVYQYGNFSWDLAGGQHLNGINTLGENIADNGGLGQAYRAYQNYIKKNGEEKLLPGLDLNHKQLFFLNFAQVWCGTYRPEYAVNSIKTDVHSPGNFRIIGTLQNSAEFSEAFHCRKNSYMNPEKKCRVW

Work on C[C@@H]1Oc2ccccc2N(CC(=O)O)C(=O)[C@H]1NC(=O)[C@@H](S)Cc1ccccc1 yielded an IC50 (Neprilysin) of 5.2 nM, an IC50 [1] of 36 nM and an ED50 (Rattus norvegicus) of 2.1 µmol/kg.
In the case of O=C(O)CN1C(=O)[C@@H](NC(=O)[C@@H](S)Cc2ccccc2)CSc2ccccc21, the IC50 (Neprilysin) is reported as 64 nM, the IC50 [1] is reported as 13 nM and the ED50 (Rattus norvegicus) is reported as 0.14 µmol/kg.
Compound O=C(O)CN1C(=O)[C@@H](NC(=O)[C@@H](CS)Cc2ccccc2)COc2ccccc21 has an IC50 (Neprilysin) of 0.6 nM, an IC50 [1] of 4.4 nM and an ED50 (Rattus norvegicus) of 5.8 µmol/kg.
Work on O=C(O)CCN1C(=O)[C@@H](NC(=O)[C@@H](S)Cc2ccccc2)CSc2ccccc21 yielded an IC50 (Neprilysin) of 2.2 nM, an IC50 [1] of 14 nM and an ED50 (Rattus norvegicus) of 0.33 µmol/kg.
For O=C(O)CCN1C(=O)[C@@H](NC(=O)[C@@H](S)Cc2ccccc2)CCc2ccccc21, the IC50 (Neprilysin) was 2.4 nM, the IC50 [1] was 36 nM and the ED50 (Rattus norvegicus) was 1.34 µmol/kg.
O=C(O)CN1C(=O)[C@@H](NC(=O)[C@@H](S)Cc2ccccc2)COc2ccccc21 was tested, and the IC50 (Neprilysin) was 3.1 nM, the IC50 [1] was 28 nM and the ED50 (Rattus norvegicus) was 0.26 µmol/kg.
In the case of C[C@H]1Oc2ccccc2N(CCC(=O)O)C(=O)[C@H]1NC(=O)[C@@H](S)Cc1ccccc1, the IC50 (Neprilysin) is reported as 83 nM and the IC50 [1] is reported as 18 nM.
C[C@H]1Oc2ccccc2N(CC(=O)O)C(=O)[C@H]1NC(=O)[C@@H](S)Cc1ccccc1 gave an IC50 (Neprilysin) of 118 nM, an IC50 [1] of 13 nM and an ED50 (Rattus norvegicus) of 0.015 µmol/kg.
In the case of O=C(O)CN1C(=O)[C@@H](NC(=O)[C@@H](CS)Cc2ccccc2)CCc2ccccc21, the IC50 (Neprilysin) is reported as 2.1 nM, the IC50 [1] is reported as 4.8 nM and the ED50 (Rattus norvegicus) is reported as 0.52 µmol/kg.
O=C(O)CN1C(=O)[C@@H](NC(=O)[C@@H](CS)Cc2ccccc2)CSc2ccccc21 showed an IC50 (Neprilysin) of 1 nM, an IC50 [1] of 17 nM and an ED50 (Rattus norvegicus) of 4 µmol/kg.
C[C@H](NC(=O)[C@@H](S)Cc1ccccc1)C(=O)N1CCC[C@H]1C(=O)O was tested, and the IC50 (Neprilysin) was 400 nM, the IC50 [1] was 30 nM and the ED50 (Rattus norvegicus) was 0.06 µmol/kg.
Work on O=C(O)CCN1C(=O)[C@@H](NC(=O)[C@@H](CS)Cc2ccccc2)CCc2ccccc21 yielded an IC50 (Neprilysin) of 1.7 nM, an IC50 [1] of 36 nM and an ED50 (Rattus norvegicus) of 13.3 µmol/kg.
Work on O=C(O)CN1C(=O)[C@@H](NC(=O)[C@@H](S)Cc2ccccc2)CCc2ccccc21 yielded an IC50 (Neprilysin) of 6.1 nM and an ED50 (Rattus norvegicus) of 0.02 µmol/kg.
Work on C[C@H](NC(=O)[C@@H](CS)Cc1ccccc1)C(=O)N1CCC[C@H]1C(=O)O yielded an IC50 (Neprilysin) of 6.6 nM, an IC50 [1] of 4 nM and an ED50 (Rattus norvegicus) of 0.5 µmol/kg.
Work on O=C(O)CCN1C(=O)[C@@H](NC(=O)[C@@H](S)Cc2ccccc2)COc2ccccc21 yielded an IC50 (Neprilysin) of 1.2 nM, an IC50 [1] of 31 nM and an ED50 (Rattus norvegicus) of 1.2 µmol/kg.
